Results published in patent publication US20080312128A1, “Cellular Biomarker Antioxidant Assay and Uses Thereof” (priority 2005, published 2008).
Entries after “also recorded” stand apart in the source; their conditions may differ.

Experiments:
Assay type in all cases: cell-based, human
HO-1 = test: Vitamin C pretreatment, OS-induced HO-1 transcription in RPE cells; details: 500 μM H2O2, 1 hour and 4 hours after OS
Protocol: RNA was isolated from the cells using a no-rinse method after 1 hour or 4 hours of OS, and compared to no-OS controls. Gene-specific expression was quantified by real-time PCR on an ABI 7700 System. […] Experiments were carried out as described above. Briefly, ARPE19 cells were grown to confluence. […] Following RNA extraction and reverse transcription, real-time PCR was used to assess levels of gene transcripts, as described above. […] The data are normalized to 0 at time 0 in order to minimize the mild variability in starting values for the Ct seen within each experiment.

FosB = test: Vitamin C pretreatment, OS-induced FosB transcription in RPE cells; details: for Inhibition of OS-induced FosB transcription: 0.0001-0.2 mM pretreatment
Protocol: (§1) RNA was isolated from the cells using a no-rinse method after 1 hour or 4 hours of OS, and compared to no-OS controls. Gene-specific expression was quantified by real-time PCR on an ABI 7700 System. […] Experiments were carried out as described above. Briefly, ARPE19 cells were grown to confluence. […] Following RNA extraction and reverse transcription, real-time PCR was used to assess levels of gene transcripts, as described above. […] The data are normalized to 0 at time 0 in order to minimize the mild variability in starting values for the Ct seen within each experiment. […] OS strongly induces gene expression in our gene panel, and the number of transcripts (amount of induction) is proportional to the level of OS. Therefore, protective effects of an antioxidant such as Vitamin C would be expected to reduce the level of transcripts. A protective effect is reflected in an inverse dose dependent (DD) relationship between the level of antioxidant agent (Vitamin C) and the level of transcripts. Higher pretreatment levels with the antioxidant should lead to a lower level of transcripts after OS (a lower change in Ct). An extremely low dose of Vitamin C (0.0001 mM) was chosen in these studies as a homeopathic dose that is not expected to be protective and should be similar to the positive control. This control was added to ensure that all cultures were treated in the same way, as we have determined that even minimal manipulations can have significant effects upon expression of these genes.

cFos = test: Vitamin C pretreatment, OS-induced cFos transcription in RPE cells
Protocol: as §1

CRYBA = test: Vitamin C pretreatment, OS-induced CRYBA transcription in RPE cells; details: for Inhibition of OS-induced CRYBA transcription: 0.0001-0.2 mM pretreatment
Protocol: as §1

ATF3 = test: Vitamin C pretreatment, OS-induced ATF3 transcription in RPE cells
Protocol: as §1, with “An extremely low dose of Vitamin C (0.0001 mM) was chosen in these studies as a homeopathic dose that is not expected to be protective and should be similar to the positive control.” left out

O=C1O[C@H]([C@@H](O)CO)C(O)=C1O [Vitamin C, L-ascorbic acid]
Response of HO-1 transcription after OS to pretreatment (HO-1): does not demonstrate any response; also recorded: does not appear to be reduced
Inhibition of OS-induced FosB transcription (FosB; 500 μM H2O2, 1 hour): modest dose response
Inhibition of OS-induced FosB transcription (FosB; 500 μM H2O2, 4 hours): the effect is quite clear
Activation of FosB transcription by OS following pretreatment (FosB; summary, 500 μM H2O2): dose-dependent reduction
Inhibition of OS-induced cFos transcription (cFos; 0.0001-0.2 mM pretreatment, 500 μM H2O2, 1 hour): modest threshold response
Inhibition of OS-induced cFos transcription (cFos; 0.2 mM dose, 500 μM H2O2, 1 hour): strong dose-dependence
Inhibition of OS-induced cFos transcription (cFos; 500 μM H2O2, 4 hours): threshold response for the lower levels of Vitamin C is still seen
Activation of c-Fos transcription by OS following pretreatment (cFos; summary, 500 μM H2O2): dose-dependent reduction
Inhibition of OS-induced CRYBA transcription (CRYBA; 500 μM H2O2, 1 hour): DD response is evident
Inhibition of OS-induced CRYBA transcription (CRYBA; 500 μM H2O2, 4 hours): DD response is more evident
Activation of CRYBA transcription by OS following pretreatment (CRYBA; summary, 500 μM H2O2): dose-dependent reduction
Response of OS-induced ATF3 transcription to pretreatment (ATF3; 0.0001-0.2 mM pretreatment, 500 μM H2O2): we do not see a response; also recorded: does not appear to be reduced; also recorded: does not inhibit
Response of OS-induced ATF3 transcription to pretreatment (ATF3; 500 μM H2O2, 4 hours): slight threshold response may be present
